# Measured values: patent US10723726B2, “Solid forms of (Z)-4-(5-((3-benzyl-4-oxo-2-thioxothiazolidin-5-ylidene)methyl)furan-2-yl)benzoic acid” (GB006, INC., priority 2015, dated 2020)
# Entries after “also recorded” stand apart in the source; their conditions may differ. Counter-ions that a name gives are not always drawn. Like-named read-outs stand apart in the source and are kept apart here.
# Legend:
# leukocytes = details: mice; cited from earlier work
# in vivo = details: male, rat; for half-life: t1/2,ß
# Experimental: (§1) In a second experiment, the dose solution was prepared in Tween-80 (0.02%) and 0.5% methyl cellulose in Milli-Q water. IP (2 mg/kg) and IV (1 mg/kg) dose solutions were prepared in a 5% DMSO and 95% PEG-200.
# (§2) The PO (2 mg/kg) dose solution was prepared in Tween-80 (0.02%) and 0.5% methyl cellulose in Milli-Q water. The IV (1 mg/kg) dose solution was prepared in a solution of 5% DMSO and 95% PEG-200.
# (§3) The routes of administration were namely PO (gavage), IP (bolus) and IV (bolus through tail vein). A total of four SD male rats were used aged between 5-6 weeks. The feeding regimen included 12 h fasting and the feed was provided 2 hrs after the dosage inoculation and water was provided ad libidum. The blood collection schedule for PO/IP was at 0.25, 0.5, 1, 2, 4, 8, 10 and 24 h, and for IV it was at 0.12, 0.25, 0.5, 1, 2, 4, 8 and 24 h. For PO dosage, tween-80 (0.02%) and 0.5% methyl cellulose prepared in milli-Q water were used as vehicles; for IP and IV dosage 5% DMSO and 95% PEG-200 were used as vehicles.
# (§4) Stock solution (178 μg/mL) in methanol was further diluted using methanol: water (80:20, v/v) to obtain working solutions in the range of 10.4 to 20745 ng/mL.
# (§5) 50 μL of sample was aliquoted in to pre-labeled vials. To it was added 200 μL of 10% tetrahydrofuran containing IS (100 ng/mL; tolbutamide) and mixed well, vortexed for 5 min followed by centrifugation for 5 min at 14000 rpm for at 4° C. Supernatant was separated and 5 μL of same was injected on LC-MS/MS.
# (§6) Data Analysis: Individual concentration-time data were analyzed using WinNonlin (Version 5.3) by non-compartmental analysis (NCA) method.
# (§7) The routes of administration were namely PO (gavage) and IV (bolus through tail vein). A total of four SD male rats were used aged between 5-6 weeks. The feeding regimen included 12 h fasting and the feed was provided 2 hrs after the dosage inoculation and water was provided ad libitum. The blood collection schedule for PO was at 0.25, 0.5, 1, 2, 4, 8, 10 and 24 h, and for IV it was at 0.12, 0.25, 0.5, 1, 2, 4, 8 and 24 h. For PO dosage, tween-80 (0.02%) and 0.5% methyl cellulose prepared in milli-Q water were used as vehicles; for IV dosage 10% DMSO and 90% PEG-200 were used as vehicles.
# [1] = in vivo
# Experimental: as §1, §2, §3, §4, §5, §6, §7
# [2] = Humidity stress at 40° C./75% RH; format: physicochemical; details: 5-6 days
# Experimental: The larger vials were capped, sealed with Parafilm and placed inside an oven at 40° C. for up to 6 days. Salts were then removed from these conditions and changes observed (e.g. color, deliquescence etc.) before being analyzed for weight change and by XRPD. Samples were examined visually after stressing, form composition confirmed by XRPD analysis and weight change recorded (Table 7).
# [3] = male, Sprague Dawley, rat, ip, 2 mg/kg
# [4] = male, Sprague-Dawley, rat, ip, 2 mg/kg
# [5] = male, Sprague-Dawley, rat, iv, 1 mg/kg
# [6] = male, Sprague-Dawley, rat, po, 2 mg/kg
compound,measurement,setting,value
"O=C(O)c1ccc(-c2ccc(/C=C3\SC(=S)N(Cc4ccccc4)C3=O)o2)cc1 [LA1, (Z)-4-(5-((3-benzyl-4-oxo-2-thioxothiazolidin-5-ylidene)methyl)furan-2-yl)benzoic acid]",recruitment of leukocytes during acute peritonitis,leukocytes,reduce recruitment of leukocytes
same,clearance,"in vivo; Sprague Dawley, iv, 1 mg/kg, Rat Cl (ml/min/kg)",19.7 mL/min/kg
same,bioavailability,"in vivo; Sprague-Dawley, % F (absolute IP bioavailability)",82%
same,clearance,"in vivo; Sprague-Dawley, Rat Cl (ml/min/kg)",20 mL/min/kg
same,bioavailability,"in vivo; Sprague-Dawley, ip, 2 mg/kg, % F (absolute IP bioavailability)",81.6%
same,AUC,"in vivo; Sprague-Dawley, ip, 2 mg/kg, AUC in mM*hr",3.5 µM·h
same,Tmax,"in vivo; Sprague-Dawley, ip, 2 mg/kg",0.25 h
same,AUC0-t,"in vivo; Sprague-Dawley, iv, 1 mg/kg, AUC0-t",903 ng·h/mL
same,AUC(0-inf),"in vivo; Sprague-Dawley, iv, 1 mg/kg, AUC0-∞",918 ng·h/mL
same,clearance,"in vivo; Sprague-Dawley, iv, 1 mg/kg, CL",19.7 mL/min/kg
same,Cmax,"in vivo; Sprague-Dawley, iv, 1 mg/kg, Cmax",952 ng/mL
same,clearance,"in vivo; Sprague-Dawley, iv, 1 mg/kg, Rat Cl (ml/min/kg)",19.7 mL/min/kg
same,Vd,"in vivo; Sprague-Dawley, iv, 1 mg/kg, Vd",2.39 L/kg
same,half-life,"in vivo; Sprague-Dawley, iv, 1 mg/kg",1.16 h
same,Rat F %,"[1]; po, 2 mg/kg",Exposure too low
same,Vss,"[1]; male, Sprague Dawley, rat",4.19 L/kg
same,MRT,[1]; [3],3.44 h
same,Vss,"[1]; male, Sprague-Dawley, rat",4.19 L/kg
same,AUC0-t,[1]; [4],1481 ng·h/mL
same,AUC0-∞,[1]; [4],1499 ng·h/mL
same,MRT,[1]; [4],3.44 h
same,Tlast,[1]; [4],20.5 h
same,C0,[1]; [5],1317 ng/mL
same,MRT,[1]; [5],3.38 h
same,Tlast,[1]; [5],20.0 h
same,MRT (hr),"[1]; rat, po, 2 mg/kg",Exposure too low
O=C(O)c1ccc(-c2ccc(/C=C3\SC(=S)N(Cc4ccccc4)C3=O)o2)cc1 [LA1 choline salt],Weight gain (%),[2],8.9%
same,XRPD after stressing,[2],phase change; also recorded: New pattern (Q)
same,bioavailability,"in vivo; Sprague-Dawley, F (absolute oral bioavailability)",41%
same,MRT,"in vivo; Sprague-Dawley, po, 2 mg/kg, MRT",1.81 h
same,half-life,"in vivo; Sprague-Dawley, po, 2 mg/kg",1.57 h
same,Tmax,"in vivo; Sprague-Dawley, po, 2 mg/kg",0.5 h
same,Rat Cl,"[1]; male, Sprague Dawley, iv, 1 mg/kg",17.6 mL/min/kg
same,Vss,"[1]; male, Sprague Dawley, rat",0.73 L/kg
same,MRT,[1]; [3],1.02 h
same,Rat Cl,"[1]; male, Sprague-Dawley",18 mL/min/kg
same,Rat Cl,"[1]; male, Sprague-Dawley, iv, 1 mg/kg",17.6 mL/min/kg
same,% F (absolute IP bioavailability),"[1]; male, Sprague-Dawley, rat",84%
same,Vss,"[1]; male, Sprague-Dawley, rat",0.73 L/kg
same,AUC0-t,[1]; [4],1657 ng·h/mL
same,AUC0-∞,[1]; [4],1666 ng·h/mL
same,MRT,[1]; [4],1.02 h
same,Tlast,[1]; [4],10.0 h
same,Tmax,[1]; [4],0.25 h
same,AUC0-t,[1]; [5],985 ng·h/mL
same,AUC0-∞,[1]; [5],993 ng·h/mL
same,C0,[1]; [5],1856 ng/mL
same,MRT,[1]; [5],0.72 h
same,Tlast,[1]; [5],7.00 h
same,Vd,[1]; [5],1.78 L/kg
same,AUC0-t,[1]; [6],808 ng·h/mL
same,AUC0-∞,[1]; [6],814 ng·h/mL
same,Tlast,[1]; [6],10.0 h
